Measured values as given in ChEMBL document CHEMBL4433232, “Tool inhibitors and assays to interrogate the biology of the TRAF2 and NCK interacting kinase” (Bioorg Med Chem Lett, 2019).
Calls of active or inactive are those of the source. The rule behind the calls is not given here.

How the values were obtained:
[1] = target: T1, TRAF2 and NCK-interacting protein kinase (Homo sapiens, UniProt Q9UKE5); test: Inhibition of human full length TNIK(1-1360)-G5-Avi-6His-Flag expressed in baculovirus-infected sf21 cells using His6-SMAD1 as substrate preincubated for 30 mins followed by substrate addition and measured after 120 mins by ADP-Glo Reagent based method
Target sequence in this assay (Q9UKE5 whole entry): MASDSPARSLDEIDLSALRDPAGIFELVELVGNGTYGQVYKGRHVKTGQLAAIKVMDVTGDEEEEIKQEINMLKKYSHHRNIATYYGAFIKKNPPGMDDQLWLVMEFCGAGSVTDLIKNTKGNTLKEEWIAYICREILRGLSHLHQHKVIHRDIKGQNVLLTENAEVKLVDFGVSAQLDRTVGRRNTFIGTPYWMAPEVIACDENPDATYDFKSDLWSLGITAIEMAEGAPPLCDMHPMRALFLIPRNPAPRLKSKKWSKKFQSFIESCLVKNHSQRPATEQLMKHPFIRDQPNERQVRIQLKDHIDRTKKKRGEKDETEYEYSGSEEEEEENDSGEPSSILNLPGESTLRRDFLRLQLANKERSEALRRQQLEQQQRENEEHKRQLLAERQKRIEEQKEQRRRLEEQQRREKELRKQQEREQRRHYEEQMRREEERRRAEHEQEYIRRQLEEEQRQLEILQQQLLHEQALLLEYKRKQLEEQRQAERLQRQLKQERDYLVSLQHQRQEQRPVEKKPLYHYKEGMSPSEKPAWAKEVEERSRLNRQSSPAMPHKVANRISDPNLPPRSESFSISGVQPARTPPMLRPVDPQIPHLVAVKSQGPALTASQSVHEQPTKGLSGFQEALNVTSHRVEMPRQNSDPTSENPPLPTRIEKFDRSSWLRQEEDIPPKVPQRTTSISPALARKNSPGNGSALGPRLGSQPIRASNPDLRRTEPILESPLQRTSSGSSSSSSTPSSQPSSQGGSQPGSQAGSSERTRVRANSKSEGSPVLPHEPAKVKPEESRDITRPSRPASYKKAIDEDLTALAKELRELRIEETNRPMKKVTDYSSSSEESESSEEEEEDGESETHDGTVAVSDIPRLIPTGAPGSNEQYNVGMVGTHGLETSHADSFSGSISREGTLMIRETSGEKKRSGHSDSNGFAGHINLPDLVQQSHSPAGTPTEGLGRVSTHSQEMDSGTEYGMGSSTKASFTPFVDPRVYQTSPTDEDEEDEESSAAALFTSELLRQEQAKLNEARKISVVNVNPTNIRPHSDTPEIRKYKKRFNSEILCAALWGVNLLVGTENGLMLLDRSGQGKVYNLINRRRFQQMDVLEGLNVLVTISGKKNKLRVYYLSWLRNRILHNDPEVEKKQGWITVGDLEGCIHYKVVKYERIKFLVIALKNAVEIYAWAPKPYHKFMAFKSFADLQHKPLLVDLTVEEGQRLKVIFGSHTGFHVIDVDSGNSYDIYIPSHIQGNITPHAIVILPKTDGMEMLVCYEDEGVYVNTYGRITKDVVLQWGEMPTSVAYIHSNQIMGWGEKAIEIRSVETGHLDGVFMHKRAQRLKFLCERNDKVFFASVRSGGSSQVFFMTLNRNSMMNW

[2] = target: T2, Misshapen-like kinase 1 (Homo sapiens, UniProt Q8N4C8); test: Inhibition of human full length MINK1(1-1332)-G5-Avi-6His-Flag expressed in baculovirus-infected sf21 cells using His6-SMAD1 as substrate preincubated for 30 mins followed by substrate addition and measured after 120 mins by ADP-Glo Reagent based method
[3] = target: T3, Mitogen-activated protein kinase kinase kinase kinase 4 (Homo sapiens, UniProt O95819); test: Inhibition of human full length MAP4K4(1-1239)-G5-Avi-6His-Flag expressed in baculovirus-infected sf21 cells using His6-SMAD1 as substrate preincubated for 30 mins followed by substrate addition and measured after 120 mins by ADP-Glo Reagent based method
Target sequence in this assay (O95819 whole entry): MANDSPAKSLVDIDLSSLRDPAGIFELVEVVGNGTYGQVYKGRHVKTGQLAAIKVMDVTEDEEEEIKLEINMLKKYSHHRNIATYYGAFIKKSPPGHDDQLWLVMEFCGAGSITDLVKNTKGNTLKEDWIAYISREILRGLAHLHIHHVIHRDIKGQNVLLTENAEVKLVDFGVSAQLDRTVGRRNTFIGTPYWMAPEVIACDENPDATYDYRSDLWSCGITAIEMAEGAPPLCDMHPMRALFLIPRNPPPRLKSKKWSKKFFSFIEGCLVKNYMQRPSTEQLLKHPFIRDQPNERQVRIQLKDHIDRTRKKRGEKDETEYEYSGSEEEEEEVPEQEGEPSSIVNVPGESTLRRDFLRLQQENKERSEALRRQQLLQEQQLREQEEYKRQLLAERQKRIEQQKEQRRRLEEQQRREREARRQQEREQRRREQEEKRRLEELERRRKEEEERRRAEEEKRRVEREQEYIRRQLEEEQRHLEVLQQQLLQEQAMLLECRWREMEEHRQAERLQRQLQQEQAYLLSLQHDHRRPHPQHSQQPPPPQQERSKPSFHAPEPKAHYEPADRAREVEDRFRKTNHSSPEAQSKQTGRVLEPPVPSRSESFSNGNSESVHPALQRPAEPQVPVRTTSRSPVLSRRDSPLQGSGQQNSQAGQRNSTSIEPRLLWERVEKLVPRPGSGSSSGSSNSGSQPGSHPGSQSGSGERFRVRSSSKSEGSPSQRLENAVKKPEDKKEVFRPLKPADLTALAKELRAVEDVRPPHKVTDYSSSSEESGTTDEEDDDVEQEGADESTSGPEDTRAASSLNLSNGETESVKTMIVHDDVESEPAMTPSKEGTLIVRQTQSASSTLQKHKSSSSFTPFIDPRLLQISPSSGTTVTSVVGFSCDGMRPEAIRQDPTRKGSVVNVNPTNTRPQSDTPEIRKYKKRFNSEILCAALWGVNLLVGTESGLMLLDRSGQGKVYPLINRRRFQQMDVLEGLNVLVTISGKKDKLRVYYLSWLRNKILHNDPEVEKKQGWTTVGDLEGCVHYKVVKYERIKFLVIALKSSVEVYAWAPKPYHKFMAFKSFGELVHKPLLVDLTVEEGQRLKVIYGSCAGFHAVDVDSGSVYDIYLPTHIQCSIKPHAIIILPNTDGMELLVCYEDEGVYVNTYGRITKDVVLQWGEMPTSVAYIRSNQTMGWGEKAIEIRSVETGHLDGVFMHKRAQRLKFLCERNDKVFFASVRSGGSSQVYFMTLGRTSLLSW

[4] = target: T3, Mitogen-activated protein kinase kinase kinase kinase 4; test: Inhibition of human 6His-TEV-SHM-MAP4K4(2 to 328)-GNS expressed in baculovirus-infected sf21 cells using LRRKtide as substrate preincubated for 30 mins followed by substrate addition and measured after 75 to 90 mins by ADP-Glo Reagent based method
Target sequence in this assay (O95819 whole entry): as above

[5] = target: T1, TRAF2 and NCK-interacting protein kinase; test: Inhibition of human 6His-TEV-TNIK(1 to 325) expressed in baculovirus-infected sf21 cells using LRRKtide as substrate preincubated for 30 mins followed by substrate addition and measured after 75 to 90 mins by ADP-Glo Reagent based method
Target sequence in this assay (Q9UKE5 whole entry): as the sequence (Q9UKE5 whole entry) above

[6] = target: T1, TRAF2 and NCK-interacting protein kinase; test: Inhibition of human TNIK in human iPSC derived neuronal progenitor cells assessed as reduction in motif phosphorylation at 10 uM after 6 hrs with presence of okadaic acid by Western blot analysis
Target sequence in this assay (Q9UKE5 whole entry, looked up): as the sequence (Q9UKE5 whole entry) above

[7] = target: T2, Misshapen-like kinase 1; test: Inhibition of human 6His-TEV-Avi-MINK1(1 to 328)-GNS expressed in baculovirus-infected sf21 cells using LRRKtide as substrate preincubated for 30 mins followed by substrate addition and measured after 75 to 90 mins by ADP-Glo Reagent based method
[8] = target: T1, TRAF2 and NCK-interacting protein kinase; test: Inhibition of human full length TNIK in HEK293 cells co-transfected with full length SMAD1 incubated for 2 hrs by ELISA; format: cell-based
Target sequence in this assay (Q9UKE5 whole entry): as above

[9] = target: T1, TRAF2 and NCK-interacting protein kinase; test: Inhibition of human full length TNIK in HEK293 cells co-transfected with full length SMAD1 up to 30 uM incubated for 2 hrs by ELISA; format: cell-based
Target sequence in this assay (Q9UKE5 whole entry, looked up): as the sequence (Q9UKE5 whole entry) above

[10] = target: Leucine-rich repeat serine/threonine-protein kinase 2 (Homo sapiens) (UniProt Q5S007); test: Inhibition of full length LRRK2 (unknown origin) at 0.1 uM relative to control
[11] = target: AP2-associated protein kinase 1 (Homo sapiens) (UniProt Q2M2I8); test: Inhibition of AAK1 (unknown origin) at 0.1 uM relative to control
[12] = target: T4, Myosin light chain kinase family member 4 (Homo sapiens) (UniProt Q86YV6); test: Inhibition of MYLK4 (unknown origin) at 0.1 uM relative to control
T4 sequence (whole entry): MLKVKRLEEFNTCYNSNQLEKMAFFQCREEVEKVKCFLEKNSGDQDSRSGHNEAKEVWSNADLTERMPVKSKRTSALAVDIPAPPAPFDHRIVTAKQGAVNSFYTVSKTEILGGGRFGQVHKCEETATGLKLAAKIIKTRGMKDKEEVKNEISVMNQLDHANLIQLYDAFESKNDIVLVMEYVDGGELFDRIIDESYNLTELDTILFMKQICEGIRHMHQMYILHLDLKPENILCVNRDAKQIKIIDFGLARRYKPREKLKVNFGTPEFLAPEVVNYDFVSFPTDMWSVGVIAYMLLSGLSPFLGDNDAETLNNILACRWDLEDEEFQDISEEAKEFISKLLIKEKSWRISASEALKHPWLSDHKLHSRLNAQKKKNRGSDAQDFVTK

[13] = target: Dual specificity protein kinase CLK4 (Homo sapiens) (UniProt Q9HAZ1); test: Inhibition of CLK4 (unknown origin) at 0.1 uM relative to control
[14] = system: Saccharomyces cerevisiae; test: Inhibition of Saccharomyces cerevisiae CDC7/DBF4 at 0.1 uM relative to control
[15] = target: Leucine-rich repeat serine/threonine-protein kinase 2 (Homo sapiens) (UniProt Q5S007); test: Inhibition of LRRK2 (unknown origin) at 0.1 uM relative to control
[16] = target: T5, Interleukin-1 receptor-associated kinase 3 (Homo sapiens) (UniProt Q9Y616); test: Inhibition of IRAK3 (unknown origin) at 0.1 uM relative to control
T5 sequence (whole entry): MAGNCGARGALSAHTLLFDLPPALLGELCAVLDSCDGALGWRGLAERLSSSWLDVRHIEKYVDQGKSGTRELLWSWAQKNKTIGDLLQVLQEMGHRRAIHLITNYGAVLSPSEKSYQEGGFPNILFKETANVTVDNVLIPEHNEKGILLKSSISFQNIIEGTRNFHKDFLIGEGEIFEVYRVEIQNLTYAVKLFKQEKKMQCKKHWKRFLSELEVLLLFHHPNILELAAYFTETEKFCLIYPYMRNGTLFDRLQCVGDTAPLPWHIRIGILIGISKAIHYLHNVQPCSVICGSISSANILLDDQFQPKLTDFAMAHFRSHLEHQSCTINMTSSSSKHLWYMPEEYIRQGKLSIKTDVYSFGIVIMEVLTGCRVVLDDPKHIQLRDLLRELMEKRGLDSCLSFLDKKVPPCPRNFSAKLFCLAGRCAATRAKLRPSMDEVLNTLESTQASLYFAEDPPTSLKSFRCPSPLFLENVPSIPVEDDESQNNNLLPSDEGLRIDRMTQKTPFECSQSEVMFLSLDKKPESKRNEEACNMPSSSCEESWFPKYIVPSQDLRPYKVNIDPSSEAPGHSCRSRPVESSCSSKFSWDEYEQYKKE

[17] = target: T3, Mitogen-activated protein kinase kinase kinase kinase 4; test: Inhibition of MAP4K4 (unknown origin) at 0.1 uM relative to control

T2 sequence (Q8N4C8 whole entry): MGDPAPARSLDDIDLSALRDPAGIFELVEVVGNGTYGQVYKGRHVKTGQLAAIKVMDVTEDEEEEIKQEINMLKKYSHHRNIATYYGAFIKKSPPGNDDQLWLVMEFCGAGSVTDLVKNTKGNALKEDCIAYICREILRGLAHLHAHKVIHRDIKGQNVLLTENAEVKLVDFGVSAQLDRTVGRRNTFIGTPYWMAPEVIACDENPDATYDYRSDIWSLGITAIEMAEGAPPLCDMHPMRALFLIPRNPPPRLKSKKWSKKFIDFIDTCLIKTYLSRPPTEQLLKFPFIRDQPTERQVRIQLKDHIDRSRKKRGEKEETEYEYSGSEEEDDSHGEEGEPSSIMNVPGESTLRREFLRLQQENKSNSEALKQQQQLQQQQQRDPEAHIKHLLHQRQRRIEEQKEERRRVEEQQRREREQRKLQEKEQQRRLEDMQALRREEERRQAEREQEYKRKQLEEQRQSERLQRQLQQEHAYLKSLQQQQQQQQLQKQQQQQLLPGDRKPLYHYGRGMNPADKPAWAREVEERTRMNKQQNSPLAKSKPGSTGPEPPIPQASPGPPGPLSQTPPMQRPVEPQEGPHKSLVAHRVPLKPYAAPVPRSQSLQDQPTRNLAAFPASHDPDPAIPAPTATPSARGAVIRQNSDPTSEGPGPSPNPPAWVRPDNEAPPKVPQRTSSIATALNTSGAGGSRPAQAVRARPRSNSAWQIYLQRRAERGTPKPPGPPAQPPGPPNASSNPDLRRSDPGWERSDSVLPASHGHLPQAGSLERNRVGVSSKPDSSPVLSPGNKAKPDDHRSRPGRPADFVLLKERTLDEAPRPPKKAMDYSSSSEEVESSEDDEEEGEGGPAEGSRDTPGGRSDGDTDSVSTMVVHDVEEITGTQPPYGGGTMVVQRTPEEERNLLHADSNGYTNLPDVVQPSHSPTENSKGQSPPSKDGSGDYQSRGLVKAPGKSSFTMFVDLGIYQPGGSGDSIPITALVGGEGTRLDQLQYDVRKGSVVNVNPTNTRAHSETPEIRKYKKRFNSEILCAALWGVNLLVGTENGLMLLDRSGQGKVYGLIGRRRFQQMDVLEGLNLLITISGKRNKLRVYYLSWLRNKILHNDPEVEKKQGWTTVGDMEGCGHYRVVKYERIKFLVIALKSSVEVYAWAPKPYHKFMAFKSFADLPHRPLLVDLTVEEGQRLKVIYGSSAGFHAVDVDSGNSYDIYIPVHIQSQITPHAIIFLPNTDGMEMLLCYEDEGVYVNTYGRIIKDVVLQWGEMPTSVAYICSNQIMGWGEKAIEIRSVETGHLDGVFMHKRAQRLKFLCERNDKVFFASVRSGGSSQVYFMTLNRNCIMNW
AP2-associated protein kinase 1 (Homo sapiens), sequence (Q2M2I8 whole entry, looked up): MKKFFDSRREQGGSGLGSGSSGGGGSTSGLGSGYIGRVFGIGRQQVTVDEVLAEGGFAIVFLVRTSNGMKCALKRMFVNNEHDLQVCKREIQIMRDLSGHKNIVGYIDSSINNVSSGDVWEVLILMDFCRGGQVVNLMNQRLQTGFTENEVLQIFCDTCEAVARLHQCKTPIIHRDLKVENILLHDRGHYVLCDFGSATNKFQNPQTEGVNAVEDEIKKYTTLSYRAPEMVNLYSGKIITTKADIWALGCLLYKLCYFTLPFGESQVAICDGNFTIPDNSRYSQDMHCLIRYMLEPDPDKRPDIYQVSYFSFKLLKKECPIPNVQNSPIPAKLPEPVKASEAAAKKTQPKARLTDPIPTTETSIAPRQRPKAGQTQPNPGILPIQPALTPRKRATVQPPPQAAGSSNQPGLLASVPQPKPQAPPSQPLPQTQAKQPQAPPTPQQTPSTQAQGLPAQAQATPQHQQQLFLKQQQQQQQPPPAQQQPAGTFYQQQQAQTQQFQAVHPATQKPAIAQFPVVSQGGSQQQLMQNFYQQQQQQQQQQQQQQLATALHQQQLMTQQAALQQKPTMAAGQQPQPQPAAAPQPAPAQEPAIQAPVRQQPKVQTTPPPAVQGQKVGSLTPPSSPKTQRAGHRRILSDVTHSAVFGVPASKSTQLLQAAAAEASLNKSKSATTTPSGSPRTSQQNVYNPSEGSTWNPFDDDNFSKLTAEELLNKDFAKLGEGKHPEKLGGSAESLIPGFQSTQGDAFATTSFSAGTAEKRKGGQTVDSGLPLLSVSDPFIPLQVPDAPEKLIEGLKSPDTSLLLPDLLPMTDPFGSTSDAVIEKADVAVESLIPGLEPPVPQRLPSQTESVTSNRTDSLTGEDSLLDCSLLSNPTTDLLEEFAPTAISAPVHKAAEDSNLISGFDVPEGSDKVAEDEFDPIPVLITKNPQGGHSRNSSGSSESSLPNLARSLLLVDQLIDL

Compound	IC50 [1]	IC50 [2]	IC50 [3]	IC50 ([4]; read-out: pIC50 (converted))	IC50 ([5]; read-out: pIC50 (converted))	inhibition [6]	IC50 ([7]; read-out: pIC50 (converted))	IC50 ([8]; read-out: pIC50 (converted))	inhibition [9]	IC50 ([8]; read-out: IC50)	other results
Fc1cc(-c2ccc3ccncc3n2)ccn1	5010 nM	3980 nM	3980 nM	20000 nM	15800 nM	inactive	25100 nM	> 31600 nM	inactive	–	–
CC(C)NC(=O)c1ccc(-c2cnc(N)c(-c3ccc(C#N)cc3)c2)cc1	39.8 nM	39.8 nM	25.1 nM	12.6 nM	79.4 nM	Active	126 nM	1260 nM	–	930 nM	–
CS(=O)(=O)c1ccc(-c2cc(-c3ccc(O)cc3)cnc2N)cc1	10 nM	15.8 nM	–	–	10 nM	Active	39.8 nM	–	–	470 nM	–
CN(C)c1ncc(-c2ccc(O)cc2)cc1-c1ccc(S(C)(=O)=O)cc1	3980 nM	6310 nM	7940 nM	15800 nM	3980 nM	inactive	20000 nM	> 31600 nM	inactive	–	–
CC(C)(O)c1cnc(N)c2nc(-c3ccnc(F)c3)ccc12	–	–	–	158 nM	126 nM	–	200 nM	–	–	–	–
Nc1ncc(Br)c2ccc(-c3ccnc(F)c3)nc12	7.94 nM	12.6 nM	20 nM	31.6 nM	12.6 nM	Active	50.1 nM	–	–	1130 nM	inhibition [10]: 61%; inhibition [11]: 95%; inhibition [12]: 73%; inhibition [13]: 51%; inhibition [14]: 56%; inhibition [15]: 54%; inhibition [16]: 90%; inhibition [17]: 99%
Nc1ncnc2ccc(-c3ccnc(F)c3)nc12	–	–	–	158 nM	158 nM	–	200 nM	–	–	–	IC50 ([4]; read-out: IC50): 150 to 200 nM; IC50 ([5]; read-out: IC50): 150 to 200 nM; IC50 ([7]; read-out: IC50): 150 to 200 nM
CC(C)NC(=O)c1ccc(-c2cnc(N(C)C)c(-c3ccc(C#N)cc3)c2)cc1	25100 nM	63100 nM	50100 nM	20000 nM	25100 nM	inactive	25100 nM	> 31600 nM	inactive	–	–
